From patent publication EP3820845B1, “NOVEL, NEW GENERATION INHIBITOR COMPOUNDS SPECIFIC TO GST P1 ENZYME” (HACETTEPE ÜNIVERSITESI, priority 2018, dated 2020)
pIC50, pKi: −log10 of the molar value. Where two headings read alike, the source gives them in different places.

Columns and labels:
GST P1 = GST P1 (Homo sapiens, UniProt P09211); assay: Enzyme kinetic analysis with GST P1 (GSH- and CDNB-dependent Michaelis-Menten / Lineweaver-Burk), Ki inhibition constants; type: biochemical; conditions: Figure 2
Procedure: Figure 1. IC50 dose(Log)-inhibition graph of the spectrophotometric enzyme activity of GST P1 at concentrations of the ctapm1 compound between 0-100 µM. Figure 2. kinetic analysis results of ctapm1 compound with GST P1. A and C are the GSH and CDNB dependent Michaelis-Menten graphic of the ctapm1 compound and B and D are the GSH and CDNB dependent Lineweaver-Burk graphs of the ctapm1 compound. Figure 3. The schematic view of the THC fragment, its load distribution and elemental features. 2-dimension schematic view (a) of "2,3,4,9-tetrahydro-1H-carbazole"in (shortly tetra hydro or THC) and the load distribution (b) of the THC fragment. […]
The enzyme activity was determined over the activity of GST P1 enzyme which conjugated GSH and 1-chloro-2,4-dinitrobenzene (CDNB). The test medium was prepared to include 100 mM sodium phosphate buffer (pH 6.5) comprising 1 mM EDTA, 1 mM GSH, 1 mM CDNB and 5% ethanol and the temperature of the medium was determined as 30°C. The formation of a conjugate (GS-DNB) was monitored for 1 minute over the absorbance increase at 340 nm wavelength. The specific activity was calculated using 0.0096 µM^-1 cm ^-1 absorption coefficient. […]

human-GST P1 (hGST P1) = human-GST P1 (hGST P1) (Homo sapiens, UniProt P09211); assay: Spectrophotometric GST P1 enzyme inhibition test (GSH/CDNB conjugation), IC50 determination; type: biochemical; conditions: spectrophotometric enzyme activity, ctapm1 concentrations between 0-100 µM; GraphPrism calculation; Figure 1
Procedure: Pure human-GST P1 (hGST P1) enzyme has been used as target protein in enzyme inhibition tests. "Ethacrynic acid" has been used as the model inhibitor compound. Ctapm1 (compound 1) compound which is a tetrahydrocarbazole derivative has been used as the basic precursor inhibitor for compounds that are designed, synthesized and are planned to be synthesized with advanced modifications.
The enzyme activity was determined over the activity of GST P1 enzyme which conjugated GSH and 1-chloro-2,4-dinitrobenzene (CDNB). The test medium was prepared to include 100 mM sodium phosphate buffer (pH 6.5) comprising 1 mM EDTA, 1 mM GSH, 1 mM CDNB and 5% ethanol and the temperature of the medium was determined as 30°C. The formation of a conjugate (GS-DNB) was monitored for 1 minute over the absorbance increase at 340 nm wavelength. The specific activity was calculated using 0.0096 µM^-1 cm ^-1 absorption coefficient. […] [formula] ΔA: Absorbance change (A340/minute.ml) Vr: Reaction volume (ml) d: Dilution factor ε: Molar absorption coefficient (9,6 mM^-1, cm^-1) ℓ: Light path (0,524 cm for 1 cm microplate measurements for Standard spectrophotometry vessel, Ve: Volume added to the stock enzyme reaction medium (ml) […]
In order to determine IC50 values of compounds both the standard spectrophotometric method and the microplate kinetic reading method was used together. […]

Sequence of GST P1 (P09211 2-210 limits assumed): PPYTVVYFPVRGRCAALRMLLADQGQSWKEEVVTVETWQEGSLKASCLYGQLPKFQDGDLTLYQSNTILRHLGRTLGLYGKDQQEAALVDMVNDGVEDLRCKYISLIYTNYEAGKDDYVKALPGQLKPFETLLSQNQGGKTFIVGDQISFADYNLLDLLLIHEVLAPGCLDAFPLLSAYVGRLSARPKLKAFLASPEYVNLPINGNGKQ
Sequence of human-GST P1 (hGST P1) (P09211 2-210 limits assumed): as above

pKi (GST P1; competitive type, read-out: Ki inhibition constant against CDNB): 5.77
pKi (GST P1; non-competitive type, read-out: Ki inhibition constant against GSH): 5.76
pIC50 (human-GST P1 (hGST P1)): 5.97
SMILES: S=c1[nH]nc(C2CCc3[nH]c4ccccc4c3C2)[nH]1 (stereo not drawn) [Compound 1, 3-(2,3,4,9-tetrahydro-1H-carbazole-3-yl)-1H-1,2,4-triazole-5(4H)-thione]
